The series deals with L5178Y mouse lymphoma cells (ATCC CRL 1722). Nature of the series: Genotoxicity: Comet-Assay (alkaline electrophoresis, extent tail moment). The format is cell-based. The note with it: 1, 3, and 10 μg/mL. On the procedure:
Material: “Normal Melting Agarose” (NMA, Cat.-No. 840041) and “Low Melting Agarose” (LMA, Kat.-Nr. 870081) were obtained from Biozym (Hamburg, Germany), Triton x-100 from Fluka (Buchs S G, Schwitzerland), RPMI1640-medium, DMSO, and EDTA from Sigma-Aldrich (Taufkirchen, Germany), NaCl and Tris from Roth (Karlsruhe, Germany) and foetal calf serum (FCS) from Gibco (Karlsruhe, Germany). Sorbicillactone A of the batch: 2208/2a was used.
Cells: The genotoxicity of sorbicillactone A was tested on L5178Y mouse lymphoma cells (ATCC CRL 1722). As described (Müller et al., 1979, Cancer Res. 39:1102-1107), the cells were cultured in RPMI1640-medium with 10 mM Hepes, which was supplemented with 10% foetal calf serum (FCS). As a concentration of the inoculum, 10^4 cells/mL was chosen. The cells were incubated with 1, 3, and 10 μg/mL sorbicillactone A for 4 and 24 hours. After the incubation, the cells were examined with the “Comet-Assay”.
Alkaline electrophoresis: The object slides (Superfrost) were cleaned with acetone. 1.0-percent “Normal Melting Agarose” (NMA) in 1×PBS was cooked, and subsequently about 600 μl of agarose were applied onto an object slide. The object slides were shortly (˜5 min) dried at 50° C., and stored over night at room temperature. Then, the 0.7-percent “Low Melting Agarose” (LMA) was prepared in distilled water. The second layer on the object slides consisted of 200 μl LMA. […]

With `C/C=C/C=C/C(O)=C1/C(=O)C(C)=C(O)[C@@]2(C)OC(=O)[C@@](C)(NC(=O)/C=C/C(=O)O)[C@@H]12` [sorbicillactone A], the “change of the extent tail moment (DNA-strand scissions)” value (4 hours incubation, FIG. 2A) is “did not exhibit significant changes” and the “change of the extent tail moment (DNA-strand scissions)” value (24 hours incubation, FIG. 2B) is listed as “no significant changes”.

These data come from US20070135515A1, “Method for producing sorbicillactone a” (priority 2004, published 2007).
